biological target: T1, CARM1 (PRMT4) (Homo sapiens, UniProt Q86X55); test: CARM1 Biochemical Assay (3H-SAM Flashplate, peptide substrate); conditions: 30 min preincubation, room temperature
T1 construct: Flag-CARM1-His; made in house; host or cells: HEK 293F cells (BacMam virus)
T1 sequence (Q86X55 1-585 isoform Q86X55-1): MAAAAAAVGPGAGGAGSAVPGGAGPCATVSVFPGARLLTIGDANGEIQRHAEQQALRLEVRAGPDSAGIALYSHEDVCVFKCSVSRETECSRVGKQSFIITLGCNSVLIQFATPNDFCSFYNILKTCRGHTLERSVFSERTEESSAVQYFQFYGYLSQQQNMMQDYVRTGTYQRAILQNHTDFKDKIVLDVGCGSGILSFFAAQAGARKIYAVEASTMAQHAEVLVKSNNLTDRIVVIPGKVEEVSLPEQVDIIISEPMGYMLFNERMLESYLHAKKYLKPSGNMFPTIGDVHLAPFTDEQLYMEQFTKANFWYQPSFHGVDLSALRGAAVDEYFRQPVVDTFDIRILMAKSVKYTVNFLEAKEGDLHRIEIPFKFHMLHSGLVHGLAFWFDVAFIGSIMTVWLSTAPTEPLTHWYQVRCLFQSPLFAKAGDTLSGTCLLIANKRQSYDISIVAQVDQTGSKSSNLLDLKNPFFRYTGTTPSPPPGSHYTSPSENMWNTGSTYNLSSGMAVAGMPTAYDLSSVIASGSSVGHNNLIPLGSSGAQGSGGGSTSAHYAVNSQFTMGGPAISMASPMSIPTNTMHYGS
Description: S-adenosylmethionine (SAM), S-adenosylhomocysteine (SAH), bicine, Tween20, dimethylsulfoxide (DMSO), bovine skin gelatin (BSG), sodium butyrate and Tris(2-carboxyethyl)phosphine hydrochloride solution (TCEP) were purchased from Sigma-Aldrich at the highest level of purity possible. ^3H-SAM was purchase from American Radiolabeled Chemicals with a specific activity of 80 Ci/mmol. 384-well streptavidin Flashplates were purchased from PerkinElmer.
Peptide representative of human histone H3 residues 16-30 was synthesized with an N-terminal linker-affinity tag motif and a C-terminal amide cap by 21st Century Biochemicals. The peptide was purified by high-performance liquid chromatography (HPLC) to greater than 95% purity and confirmed by liquid chromatography mass spectrometry (LC-MS). The sequence was Biot-Ahx-[…]-amide and contained a monomethylated arginine at position 26 (SEQ ID NO.:14).
Human CARM1 (PRMT4) (NM_199141.1) transcript clone was amplified from an HEK 293 cDNA library, incorporating a flanking 5′ sequence encoding a FLAG tag ([…]) (SEQ ID NO.:6) fused directly to Ala 2 of CARM1 and 3′ sequence encoding a hexa His sequence ([…]) (SEQ ID NO.:15) fused directly to Ser 608. The gene sequence encoding isoform1 containing a deletion of amino acids 539-561 was amplified subsequently and subcloned into pFastBacMam (Viva Biotech).
Recombinant baculovirus were generated according to Bac-to-Bac kit instructions (Life Technologies). […] Infections were carried out at 37° C. for 48 hours, harvested by centrifugation, and stored at −80° C. for purification.
Column was washed with 500 mM NaCl in buffer A and Flag-CARM1-His was eluted with 200 ug/ml FLAG peptide in buffer A. Pooled fractions were dialyzed in 20 mM Tris, 150 mM NaCl, 5% glycerol and 1 mM DTT, pH 7.8. The purity of recovered protein was 94.
General Procedure for CARM1 Enzyme Assays on Peptide Substrates.
The assays were all performed in a buffer consisting of 20 mM Bicine (pH=7.6), 1 mM TCEP, 0.005% BSG, and 0.002% Tween 20, prepared on the day of use. Compounds in 100% DMSO (1 ul) were spotted into a polypropylene 384-well V-bottom plates (Greiner) using a Platemate Plus outfitted with a 384-channel head (Thermo Scientific). DMSO (1 ul) was added to Columns 11, 12, 23, 24, rows A-H for the maximum signal control and 1 ul of SAH, a known product and inhibitor of CARM1, was added to columns 11, 12, 23, 24, rows I-P for the minimum signal control. A cocktail (40 ul) containing the CARM1 enzyme was added by Multidrop Combi (Thermo-Fisher). The compounds were allowed to incubate with CARM1 for 30 min at room temperature, then a cocktail (10 ul) containing ^3H-SAM and peptide was added to initiate the reaction (final volume=51 ul). The final concentrations of the components were as follows: CARM1 was 0.25 nM, ^3H-SAM was 30 nM, peptide was 250 nM, SAH in the minimum signal control wells was 1 mM, and the DMSO concentration was 2%. The assays were stopped by the addition of non-radiolabeled SAM (10 ul) to a final concentration of 300 uM, which dilutes the ^3H-SAM to a level where its incorporation into the peptide substrate is no longer detectable. 50 ul of the reaction in the 384-well polypropylene plate was then transferred to a 384-well Flashplate and the biotinylated peptides were allowed to bind to the streptavidin surface for at least 1 hour before being washed once with 0.1% Tween20 in a Biotek ELx405 plate washer. The plates were then read in a PerkinElmer TopCount plate reader to measure the quantity of ^3H-labeled peptide bound to the Flashplate surface, measured as disintegrations per minute (dpm) or alternatively, referred to as counts per minute (cpm).
Where dpm=disintegrations per minute, cmpd=signal in assay well, and min and max are the respective minimum and maximum signal controls.
Where top and bottom are the normally allowed to float, but may be fixed at 100 or 0 respectively in a 3-parameter fit. […]

IC50 [µM]	Structure (SMILES)
3.01 to 10	CN(CCN)Cc1c[nH]nc1-c1ccsc1 [Compound 3]
≥ 10	CN(CCN)Cc1c[nH]nc1-c1cncnc1 [Compound 4]
≥ 10	CN(CCN)Cc1c[nH]nc1-c1cccs1 [Compound 5]
3.01 to 10	CN(CCN)Cc1c[nH]nc1-c1ccco1 [Compound 6]
3.01 to 10	CN(CCN)Cc1c[nH]nc1-c1ccoc1 [Compound 7]
3.01 to 10	CN(CCN)Cc1c[nH]nc1-c1cnn(C)c1 [Compound 8]
1.01 to 3	CN(CCN)Cc1c[nH]nc1-c1ccc2scnc2c1 [Compound 9]
≥ 10	Cc1noc(C)c1-c1n[nH]cc1CN(C)CCN [Compound 10]
≥ 10	COc1ncc(-c2n[nH]cc2CN(C)CCN)cn1 [Compound 11]
≥ 10	CN(CCN)Cc1c[nH]nc1-c1cn[nH]c1 [Compound 12]
0.101 to 1	CN(CCN)Cc1c[nH]nc1-c1cnc2[nH]ccc2c1 [Compound 13]
≥ 10	CN(CCN)Cc1c[nH]nc1-c1cc[nH]n1 [Compound 14]

Reference: US9630961B2, “Arginine methyltransferase inhibitors and uses thereof” (Epizyme, Inc., priority 2013, dated 2017)
